According to PubChem BioAssay AID330 (DTP/NCI, 2004):
Several values for one entry are separate records, joined by “and”; a condition that tells them apart may be missing. Equal entries are not always repeated. Toxic doses and inconclusive results are not listed.

Test system: P388 leukemia ip, CD2F1 mice, survival T/C
Experiment: NCI In Vivo Anticancer Drug Screen. Data for tumor model P388 Leukemia (intraperitoneal) in CD2F1 (CDF1) mice
Details: endpoint: median survival time, higher = longer survival
Procedure, shortened: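 Mice carrying the transplanted tumor received test compound or vehicle. Survival was recorded in each group, and the value is the treated-group measurement divided by that of the vehicle-treated control group.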

[1] = dose: 12.5 mg/kg/injection, schedule: Q01DX005 (ip), vehicle: saline with Tween-80
[2] = dose: 25.0 mg/kg/injection, schedule: Q01DX005 (ip), vehicle: saline with Tween-80
[3] = dose: 50.0 mg/kg/injection, schedule: Q01DX005 (ip), vehicle: saline with Tween-80
[4] = dose: 100.0 mg/kg/injection, schedule: Q01DX005 (ip), vehicle: saline with Tween-80
[5] = dose: 200.0 mg/kg/injection, schedule: Q01DX005 (ip), vehicle: saline with Tween-80
[6] = dose: 50.0 mg/kg/injection, schedule: Q01DX009 (ip), vehicle: saline with Tween-80
[7] = dose: 100.0 mg/kg/injection, schedule: Q01DX009 (ip), vehicle: saline with Tween-80
[8] = dose: 12.5 mg/kg/injection, schedule: Q01DX009 (ip), vehicle: saline
[9] = dose: 25.0 mg/kg/injection, schedule: Q01DX009 (ip), vehicle: saline
[10] = dose: 50.0 mg/kg/injection, schedule: Q01DX009 (ip), vehicle: saline
[11] = dose: 100.0 mg/kg/injection, schedule: Q04DX003 (ip), vehicle: saline with Tween-80
[12] = dose: 200.0 mg/kg/injection, schedule: Q04DX003 (ip), vehicle: saline with Tween-80
[13] = dose: 25.0 mg/kg/injection, schedule: Q04DX003 (ip), vehicle: saline with Tween-80
[14] = dose: 50.0 mg/kg/injection, schedule: Q01DX009 (ip), vehicle: Klucel (hydroxypropylcellulose) (HPC)
[15] = dose: 100.0 mg/kg/injection, schedule: Q01DX009 (ip), vehicle: Klucel (hydroxypropylcellulose) (HPC)
[16] = dose: 200.0 mg/kg/injection, schedule: Q01DX009 (ip), vehicle: Klucel (hydroxypropylcellulose) (HPC)
[17] = dose: 60.0 mg/kg/injection, schedule: Q01DX005 (ip), vehicle: Klucel (hydroxypropylcellulose) (HPC)
[18] = dose: 120.0 mg/kg/injection, schedule: Q01DX005 (ip), vehicle: Klucel (hydroxypropylcellulose) (HPC)
[19] = dose: 240.0 mg/kg/injection, schedule: Q01DX005 (ip), vehicle: Klucel (hydroxypropylcellulose) (HPC)

`CC(=O)Nc1cc(NC(C)=O)cc(N(CCCl)CCCl)c1` was tested, and the T/C (dose: 3.13 mg/kg/injection, schedule: Q01DX009 (ip), vehicle: water) was 118 % of control, the T/C (dose: 12.5 mg/kg/injection, schedule: Q01DX009 (ip), vehicle: water) was 151 % of control and the T/C (dose: 16.5 mg/kg/injection, schedule: Q01DX009 (ip), vehicle: water) was 162 % of control. For the same compound, the T/C (dose: 25.0 mg/kg/injection, schedule: Q01DX009 (ip), vehicle: water) was 154 % of control and 169 % of control and 196 % of control and the T/C (dose: 37.5 mg/kg/injection, schedule: Q01DX009 (ip), vehicle: water) was 122 % of control.
In the case of `CC[C@H]1C[C@H]2CN(CCc3c([nH]c4ccccc34)[C@@](C(=O)OC)(c3cc4c(cc3OC)N(C=O)[C@H]3[C@@](O)(C(=O)OC)[C@H](OC(C)=O)[C@]5(CC)CCCN6CC[C@]43[C@@H]65)C2)C1`, the T/C (dose: 0.5 mg/kg/injection, schedule: Q01DX001 (ip), vehicle: water) is reported as 109 % of control, the T/C (dose: 1.0 mg/kg/injection, schedule: Q01DX001 (ip), vehicle: water) is reported as 107 % of control and the T/C (dose: 8.0 mg/kg/injection, schedule: Q01DX001 (ip), vehicle: water) is reported as 119 % of control.
`CSC(SC)=C1C(=O)NC(Cc2ccccc2)C1=O` (configuration not stated) was tested, and the T/C (dose: 6.25 mg/kg/injection, schedule: Q01DX005 (ip), vehicle: saline with Tween-80) was 104 % of control, the T/C [1] was 112 % of control and the T/C [2] was 119 % of control.
`CC(C)NC(=O)OCc1c(COC(=O)NC(C)C)c(S(=O)(=O)c2ccccc2)n2c1CCC2` was tested, and the T/C [2] was 89 % of control, the T/C [3] was 86 % of control and the T/C [4] was 90 % of control. The T/C [5] was 93 % of control.
With `CCCCCCCCCCSCC(N)C(=O)OCC` (configuration not stated) the T/C [6] was 99 % of control and the T/C [7] was 94 % of control.
With `C1CNC(CCNCCSCCNCCC2=NCCN2)=N1` the T/C [8] was 100 % of control, the T/C [9] was 96 % of control and the T/C [10] was 100 % of control.
With `CN(C)c1ccc(P(=O)(O)O)c(Cl)c1` the T/C (dose: 100.0 mg/kg/injection, schedule: Q01DX001 (ip), vehicle: Klucel (hydroxypropylcellulose) (HPC)) was 99 % of control, the T/C (dose: 200.0 mg/kg/injection, schedule: Q01DX001 (ip), vehicle: Klucel (hydroxypropylcellulose) (HPC)) was 96 % of control and the T/C (dose: 400.0 mg/kg/injection, schedule: Q01DX001 (ip), vehicle: Klucel (hydroxypropylcellulose) (HPC)) was 96 % of control.
`CCC(C)(CC)OC(N)=O` was tested, and the T/C (dose: 25.0 mg/kg/injection, schedule: Q01DX009 (ip), vehicle: saline with Tween-80) was 100 % of control, the T/C [6] was 91 % of control and the T/C [7] was 109 % of control. For the same compound, the T/C (dose: 200.0 mg/kg/injection, schedule: Q01DX009 (ip), vehicle: saline with Tween-80) was 105 % of control.
With `CCCCP(=O)(CCCC)CCCC.CCCCP(=O)(CCCC)CCCC.CCCCP(=O)(CCCC)CCCC.CCCCP(=O)(CCCC)CCCC.[Mn+2].[O-][Cl+3]([O-])([O-])O` the T/C (dose: 50.0 mg/kg/injection, schedule: Q01DX009 (ip), vehicle: saline + Tween-80 + alcohol) was 101 % of control, the T/C [6] was 104 % of control and the T/C (dose: 100.0 mg/kg/injection, schedule: Q01DX009 (ip), vehicle: saline + Tween-80 + alcohol) was 116 % of control. The T/C [7] was 119 % of control and the T/C (dose: 200.0 mg/kg/injection, schedule: Q01DX009 (ip), vehicle: saline + Tween-80 + alcohol) was 122 % of control.
For `CCC(C)(C)N=C(NC(=O)C(F)(F)F)Nc1cccnc1`, the T/C [11] was 93 % of control and the T/C [12] was 94 % of control.
For `C=C1[C@@]2(O)CCCC[C@@H]2C[N+]1(C)C`, the T/C [10] was 91 % of control, the T/C (dose: 100.0 mg/kg/injection, schedule: Q01DX009 (ip), vehicle: saline) was 90 % of control and the T/C (dose: 200.0 mg/kg/injection, schedule: Q01DX009 (ip), vehicle: saline) was 95 % of control.
With `Clc1ccc(-c2ncnc3c2Cc2ccccc2-3)cc1` the T/C [11] was 104 % of control, the T/C [12] was 100 % of control and the T/C (dose: 400.0 mg/kg/injection, schedule: Q04DX003 (ip), vehicle: saline with Tween-80) was 104 % of control.
For `O=C(NC12OC3CC(CC(C3)O1)O2)NC12OC3CC(CC(C3)O1)O2`, the T/C (dose: 100.0 mg/kg/injection, schedule: Q01DX001 (ip), vehicle: saline with Tween-80) was 100 % of control, the T/C (dose: 200.0 mg/kg/injection, schedule: Q01DX001 (ip), vehicle: saline with Tween-80) was 100 % of control and the T/C (dose: 400.0 mg/kg/injection, schedule: Q01DX001 (ip), vehicle: saline with Tween-80) was 111 % of control.
In the case of `Oc1cc(O)c2c(c1)Oc1cc(O)cc(O)c1C2`, the T/C [13] is reported as 100 % of control, the T/C [3] is reported as 106 % of control and the T/C (dose: 50.0 mg/kg/injection, schedule: Q04DX003 (ip), vehicle: saline with Tween-80) is reported as 98 % of control. For the same compound, the T/C [4] was 109 % of control, the T/C [11] was 97 % of control and the T/C [5] was 115 % of control.
In the case of `OC1c2cc(Cl)ccc2-c2c(N=Cc3ccc4c(c3)OCO4)cc(Cl)cc21` (configuration not stated), the T/C (dose: 60.0 mg/kg/injection, schedule: Q01DX005 (ip), vehicle: saline with Tween-80) is reported as 91 % of control, the T/C (dose: 120.0 mg/kg/injection, schedule: Q01DX005 (ip), vehicle: saline with Tween-80) is reported as 99 % of control and the T/C (dose: 240.0 mg/kg/injection, schedule: Q01DX005 (ip), vehicle: saline with Tween-80) is reported as 98 % of control.
In the case of `CC(=O)NCCSSCCSC(=S)N1CCCCC1`, the T/C (dose: 50.0 mg/kg/injection, schedule: Q01DX005 (ip), vehicle: Klucel (hydroxypropylcellulose) (HPC)) is reported as 112 % of control, the T/C (dose: 100.0 mg/kg/injection, schedule: Q01DX005 (ip), vehicle: Klucel (hydroxypropylcellulose) (HPC)) is reported as 107 % of control and the T/C (dose: 200.0 mg/kg/injection, schedule: Q01DX005 (ip), vehicle: Klucel (hydroxypropylcellulose) (HPC)) is reported as 102 % of control.
For `CCOC(=O)CCN(C(C)=O)C(CC(C)C)C(=O)OCC` (configuration not stated), the T/C [3] was 98 % of control, the T/C [4] was 105 % of control and the T/C [5] was 105 % of control.
With `O=C(/C=C\c1ccc(Cl)cc1)c1ccccc1` the T/C (dose: 12.5 mg/kg/injection, schedule: Q01DX009 (ip), vehicle: Klucel (hydroxypropylcellulose) (HPC)) was 101 % of control and 91 % of control, the T/C (dose: 25.0 mg/kg/injection, schedule: Q01DX009 (ip), vehicle: Klucel (hydroxypropylcellulose) (HPC)) was 100 % of control and the T/C [14] was 93 % of control and 95 % of control. The T/C (dose: 50.0 mg/kg/injection, schedule: Q01DX009 (ip), vehicle: gum acacia) was 98 % of control, the T/C [15] was 99 % of control and 93 % of control and the T/C (dose: 100.0 mg/kg/injection, schedule: Q01DX009 (ip), vehicle: gum acacia) was 104 % of control. The T/C [16] was 98 % of control and 100 % of control, the T/C (dose: 200.0 mg/kg/injection, schedule: Q01DX009 (ip), vehicle: gum acacia) was 104 % of control and the T/C (dose: 400.0 mg/kg/injection, schedule: Q01DX009 (ip), vehicle: Klucel (hydroxypropylcellulose) (HPC)) was 108 % of control and 92 % of control. The T/C (dose: 400.0 mg/kg/injection, schedule: Q01DX009 (ip), vehicle: gum acacia) was 104 % of control.
`C=CCC1CCSC1=O` (configuration not stated) was tested, and the T/C [13] was 109 % of control.
For `c1ccc2c(c1)Nc1ccc(CN3CCOCC3)cc1S2`, the T/C [17] was 104 % of control, the T/C [18] was 97 % of control and the T/C [19] was 92 % of control.
With `COC1/C=C/OC2(C)Oc3c(C)c(O)c4c(O)c(c(/C=N\N(C)C56CC7CC(CC(C7)C5)C6)c(O)c4c3C2=O)NC(=O)C(C)=C/C=C/C(C)C(O)C(C)C(O)C(C)C(OC(C)=O)C1C` (configuration not stated) the T/C [17] was 93 % of control, the T/C [18] was 96 % of control and the T/C [19] was 102 % of control.
With `O=C(NCCCCCCCCCCNC(=O)C12CC3CC(CC(C3)C1)C2)C12CC3CC(CC(C3)C1)C2` the T/C [1] was 98 % of control, the T/C [2] was 96 % of control and the T/C [3] was 86 % of control and 91 % of control.
With `O=C(O)CSc1nc(-c2nc3ccccc3s2)cn1-c1ccc(F)cc1` the T/C [14] was 106 % of control, the T/C [15] was 106 % of control and the T/C [16] was 100 % of control.
In the case of `CCCCCCCCCCCCCCOCC(O)CN(CCO)CCO` (configuration not stated), the T/C [8] is reported as 105 % of control, the T/C [9] is reported as 105 % of control and the T/C [10] is reported as 88 % of control and 98 % of control.
With `BrCC[Se](Br)(Br)c1ccccc1` the T/C (dose: 1.56 mg/kg/injection, schedule: Q01DX009 (ip), vehicle: Klucel (hydroxypropylcellulose) (HPC)) was 101 % of control, the T/C (dose: 3.12 mg/kg/injection, schedule: Q01DX009 (ip), vehicle: Klucel (hydroxypropylcellulose) (HPC)) was 101 % of control and the T/C (dose: 6.25 mg/kg/injection, schedule: Q01DX009 (ip), vehicle: Klucel (hydroxypropylcellulose) (HPC)) was 99 % of control and 93 % of control.
